Earlier results in US10799517B2, “Oral composition of celecoxib for treatment of pain” (Dr. Reddy's Laboratories Ltd., priority 2015, dated 2020).

Legend:
[1] = between 5° C. and 40° C.; pH independent at pH<9
[2] = upon oral administration

aqueous solubility [1]: about 5 μg/ml
time for peak plasma concentrations to be achieved [2]: approximately 3.0 hours
Structure (SMILES): Cc1ccc(-c2cc(C(F)(F)F)nn2-c2ccc(S(N)(=O)=O)cc2)cc1 [Celecoxib, 4-[5-(4-methylphenyl)-3-(trifluoromethyl)-1H-pyrazol-1-yl] benzenesulfonamide]
